{"source": "patent US20120270807A1", "about": "“MACROCYCLIC INHIBITORS OF SERINE PROTEASE ENZYMES” (priority 2009, published 2012)"}
{"target": "human matriptase (Homo sapiens, UniProt Q9Y5Y6)", "sequence (Q9Y5Y6 615-855 limits assumed, other chains not shown)": "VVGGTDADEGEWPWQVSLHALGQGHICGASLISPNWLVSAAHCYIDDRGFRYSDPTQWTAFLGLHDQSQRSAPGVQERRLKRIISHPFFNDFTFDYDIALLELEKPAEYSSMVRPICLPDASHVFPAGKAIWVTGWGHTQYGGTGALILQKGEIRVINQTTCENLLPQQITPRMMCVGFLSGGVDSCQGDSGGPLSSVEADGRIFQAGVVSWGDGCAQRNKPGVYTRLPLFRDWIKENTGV", "assay": "Assay for inhibition of matriptase (fluorogenic substrate Boc-Gln-Ala-Arg-AMC)", "format": "biochemical", "conditions": "residual matriptase activity in presence of test compound; hydrolysis of Boc-Gln-Ala-Arg-AMC; 10 μM for initial screening per method", "description": "The following describes an assay for matriptase as a representative serine protease and is based upon reported methods. (Désilets, A.; Longpré, J.-M.; Beaulieu, M.-E.; Leduc, R. FEBS Lett. 2006, 580, 2227-2232.) Similar assays are applicable and available for other serine proteases.\nEnzyme activities were monitored by measuring the release of fluorescence from AMC-coupled peptides (excitation, 360 nm; emission, 441 nm) in a FLX-800 TBE microplate reader (Bio-Tek Instruments, Winooski, Vt., USA). The purified human matriptase was active site titrated with the burst titrant 4-methylumbelliferyl-p-guanidino benzoate (MUGB). Enzymatic assays with matriptase were performed in Tris-HCl 100 mM containing 500 µg/mL BSA at pH 9. Human soluble furin was expressed, purified, titrated and assayed as described in the literature (Denault, J. B.; Lazure, C.; Day, R; Leduc, R. Protein Expr. Purif. 2000, 19, 113-124.) The purified HAT protein was active-site titrated with MUGB. Assays with HAT were performed in 50 mM Tris-HCl at pH 8.6.\nEnzymes were diluted to concentrations ranging from 4 to 12.5 nM for furin, from 2 to 7 nM for matriptase and 20 pM for HAT and incubated with either 10 μM (for initial screening) […] or appropriate dilutions (for kinetic analysis), for example 0, 500, 1000, 2000 nM or 0, 250, 500, 1000, 2500, 5000 nM, of the test compound for 15 min at RT. Residual enzyme activity was measured by following the hydrolysis of a fluorogenic substrate (4 μM Boc-Arg-Val-Arg-Arg-AMC for furin, Boc-Gln-Ala-Arg-AMC for matriptase and 4 μM Boc-Val-Pro-Arg-AMC for HAT) (Bachem Bioscience, King of Prussia, Pa., USA). Saturation curves were performed in the presence of increasing concentrations of test compounds. Data from three independent experiments or more were typically averaged and residual velocities were plotted as a function of test compound concentration. Data were fitted by non-linear regression analysis to Equation (1) (Bieth, J. G. Methods Enzymol. 1995, 248, 59-84.) using the Enzfitter software (Biosoft, Ferguson, Mo., USA).\nvi/v0=1−{([E]0+[I]0+Ki(app))−(([E]0+[I]0+Ki(app))^2−4[E]0[I]0)^1/2}/2[E]0 Equation (1): […]\nwhere v0 and vi are the steady-state rates of substrate hydrolysis in the absence and presence of inhibitor, respectively, [E]0, the initial concentration of enzyme, [I]0, the initial concentration of inhibitor and Ki(app) the substrate-dependent equilibrium dissociation constant. The substrate-independent constant Ki was calculated using Equation (2) (Bieth, J. G. Methods Enzymol. 1995, 248, 59-84.),\nKi=Ki(app)(1+[S]0/Km) Equation (2): […]\nThe table presents results for matriptase inhibition for representative compounds of the invention.\nKi's can be calculated from the velocity using nonlinear regression analysis. The model used is a competitive enzyme inhibition equation where KmObs=Km*(1+[I]/Ki) and Y=Vmax*X/(KmObs+X). X is the substrate concentration. Y the velocity.", "units": {"Velocity (FU/min)": "FU/min"}}
{"smiles": "C[C@@H]1C(=O)N[C@H](Cc2cscn2)C(=O)NCCCc2ccc(F)cc2OCCN[C@@H](C2CC2)C(=O)N1C", "note": "[Compound 496]", "Velocity (FU/min)": 2700}
{"smiles": "C[C@@H]1CN[C@@H](C2CC2)C(=O)N(C)[C@H](C)C(=O)N[C@H](Cc2ccc(C(N)=O)cc2)C(=O)NCCCc2ccccc2O1", "note": "[Compound 498]", "Velocity (FU/min)": 580}
{"smiles": "C[C@@H]1C(=O)N[C@H](Cc2c[nH]cn2)C(=O)NCCCc2ccc(F)cc2OCCN[C@@H](C2CC2)C(=O)N1C", "note": "[Compound 493]", "Velocity (FU/min)": 2700}
{"smiles": "C[C@@H]1C(=O)N[C@H](Cc2ccc(C(=N)N)cc2)C(=O)NC/C=C/c2cccc(c2)OCCN[C@@H](C2CC2)C(=O)N1C", "note": "[Compound 482]", "Velocity (FU/min)": 2500}
{"smiles": "C[C@@H]1NCCOc2cc(F)ccc2CCCNC(=O)[C@@H](Cc2ccc(C(=N)N)cc2)NC(=O)[C@@H](C)N(C)C1=O", "note": "[Compound 467]", "Velocity (FU/min)": 2300}
{"smiles": "C[C@@H]1C(=O)N[C@H](Cc2ccncc2)C(=O)NCCCc2ccc(F)cc2OCCN[C@@H](C2CC2)C(=O)N1C", "note": "[Compound 495]", "Velocity (FU/min)": 2700}
{"smiles": "C[C@@H]1C(=O)N[C@H](CCCN)C(=O)NCCCc2ccc(F)cc2OCCN[C@@H](C2CC2)C(=O)N1C", "note": "[Compound 487]", "Velocity (FU/min)": 2500}
{"smiles": "C[C@@H]1CN[C@@H](C2CC2)C(=O)N(C)[C@H](C)C(=O)N[C@H](Cc2ccc(C(=N)N)cc2)C(=O)NCCCc2ccccc2O1", "note": "[Compound 459]", "Velocity (FU/min)": 140}
